Tests used:
ACHN (Kidney Carcinoma) = test: Bliss excess, mean over the matrix (fraction); higher = more synergy
How it was run: (§1)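 Cell lines in DMEM/F12 or RPMI with 10% FBS were plated in 1536-well plates, held 24 hours at 37°C, 5% CO2, then given two-drug dose matrices for 72 hours (DMSO typically 0.2%). Viability was read by CellTiter-Glo 2.0 luminescence and scaled as inhibition from 0 (vehicle wells) to 1 (blank wells). Combination Emax is the second-highest inhibition in the matrix; Bliss excess is observed combination effect minus expected EA + EB − EA·EB, EA and EB being single-agent effects.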

[1] = system: Ca9-22 (Head and Neck Carcinoma); test: as above
How it was run: as §1

[2] = system: Caov-4 (Ovarian Carcinoma); test: as above
How it was run: as §1

[3] = system: HOP-62 (Lung Adenocarcinoma); test: as above
How it was run: as §1

[4] = system: HSC-4 (Oral Cavity Carcinoma); test: as above
How it was run: as §1

[5] = system: Hs-766T (Pancreatic Carcinoma); test: as above
How it was run: as §1

[6] = system: KARPAS-299 (T-Cell Non-Hodgkin's Lymphoma); test: as above
How it was run: as §1

[7] = system: KYSE-450 (Esophageal Squamous Cell Carcinoma); test: as above
How it was run: as §1

[8] = system: LU-65 (Non-Small Cell Lung Carcinoma); test: as above
How it was run: as §1

[9] = system: NCI-H358 (Lung Adenocarcinoma); test: as above
How it was run: as §1

[10] = system: NEC8 (Other Solid Carcinomas); test: as above
How it was run: as §1

[11] = system: NUGC-3 (Gastric Carcinoma); test: as above
How it was run: as §1

[12] = system: OE19 (Esophageal Adenocarcinoma); test: as above
How it was run: as §1

[13] = system: OSC-20 (Oral Cavity Carcinoma); test: as above
How it was run: as §1

[14] = system: PANC-04-03 (Pancreatic Carcinoma); test: as above
How it was run: as §1

[15] = system: TE-1 (Esophageal Squamous Cell Carcinoma); test: as above
How it was run: as §1

TGW (Neuroblastoma) = test: as above
How it was run: as §1

TK10 (Kidney Carcinoma) = test: as above
How it was run: as §1

YH-13 (Glioblastoma) = test: as above
How it was run: as §1

D-263MG (Glioblastoma) = test: combination Emax (second highest fraction inhibited in the dose matrix, 72 h); higher = more inhibition; extreme values may be limits of the assay
How it was run: as §1
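Throughout, for Bliss excess, mean over the matrix: after 72 h of two-drug dosing.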

Structure (SMILES)	Bliss excess (ACHN (Kidney Carcinoma))	Bliss excess [1]	Bliss excess [2]	Bliss excess [3]	Bliss excess [4]	Bliss excess [5]	Bliss excess [6]	Bliss excess [7]	Bliss excess [8]	Bliss excess [9]	Bliss excess [10]	Bliss excess [11]	Bliss excess [12]	Bliss excess [13]	Bliss excess [14]	Bliss excess [15]	Bliss excess (TGW (Neuroblastoma))	Bliss excess (TK10 (Kidney Carcinoma))	Bliss excess (YH-13 (Glioblastoma))	combination Emax (D-263MG (Glioblastoma))
CC1(C)CCC(CN2CCN(c3ccc(C(=O)NS(=O)(=O)c4ccc(NCC5CCOCC5)c([N+](=O)[O-])c4)c(Oc4cnc5[nH]ccc5c4)c3)CC2)=C(c2ccc(Cl)cc2)C1 [Venetoclax] + CCN(CCO)CCCOc1ccc2c(Nc3cc(CC(=O)Nc4cccc(F)c4)[nH]n3)ncnc2c1 [AZD2811] (first compound max 1 µM, 7x7, partner max 1 µM)	-0.0204	0.0079	-0.0091	-0.0222	-0.0694	-0.0372	0.0871	-0.0215	-0.0556	-0.0315	-0.007	0.0083	-0.0176	-0.0372	-0.0565	0.0056	-0.011	-0.0927	-0.0428	0.323
C=CCn1c(=O)c2cnc(Nc3ccc(N4CCN(C)CC4)cc3)nc2n1-c1cccc(C(C)(C)O)n1 [AZD1775] + C1CN(CCC1(C(=O)N[C@@H](CCO)C2=CC=C(C=C2)Cl)N)C3=NC=NC4=C3C=CN4 [Capivasertib] (first compound max 3 µM, partner max 3 µM)	-0.0283	-0.0236	-0.0398	-0.0872	0.0018	-0.0513	-0.0444	-0.0843	-0.0688	-0.0375	0.013	0.0143	0.0192	-0.0196	0.083	0.001	-0.0542	-0.124	-0.0309	0.696
C=CCn1c(=O)c2cnc(Nc3ccc(N4CCN(C)CC4)cc3)nc2n1-c1cccc(C(C)(C)O)n1 [AZD1775] + C[C@@H]1COCCN1C2=NC(=NC(=C2)C3(CC3)[S@](=N)(=O)C)C4=C5C=CNC5=NC=C4 [AZD6738] (first compound max 1 µM, partner max 10 µM)	-0.0184	-0.0002	-0.0268	0.0372	-0.0155	-0.0217	0.0169	0.0809	0.0327	-0.0219	0.163	0.0683	0.0514	0.0026	-0.025	-0.0395	0.0606	-0.0896	-0.0142	0.908
COc1nnc2ccc(N3CCC(c4ccc(OCCN5CCN(C)C(=O)[C@H]5C)cc4)CC3)nn12 [AZD5153] + CC1(C)CCC(CN2CCN(c3ccc(C(=O)NS(=O)(=O)c4ccc(NCC5CCOCC5)c([N+](=O)[O-])c4)c(Oc4cnc5[nH]ccc5c4)c3)CC2)=C(c2ccc(Cl)cc2)C1 [Venetoclax] (first compound max 1 µM, 7x7, partner max 1 µM)	-0.0499	-0.0321	0.0179	-0.0716	-0.0705	-0.0487	-0.0419	-0.0404	-0.072	-0.049	-0.0661	-0.0746	0.0029	-0.0554	-0.0341	-0.0383	0.0081	-0.0549	-0.0441	0.369
C=CCn1c(=O)c2cnc(Nc3ccc(N4CCN(C)CC4)cc3)nc2n1-c1cccc(C(C)(C)O)n1 [AZD1775] + O=C(c1cc(Cc2n[nH]c(=O)c3ccccc23)ccc1F)N1CCN(C(=O)C2CC2)CC1 [Olaparib] (first compound max 1 µM, partner max 10 µM)	-0.0445	-0.0664	-0.0343	-0.0381	-0.0337	0.0002	-0.0605	-0.0897	-0.0598	-0.0184	0.0029	-0.0798	-0.0561	-0.0205	-0.0407	-0.0834	-0.0383	-0.0601	-0.0513	0.447
COc1nnc2ccc(N3CCC(c4ccc(OCCN5CCN(C)C(=O)[C@H]5C)cc4)CC3)nn12 [AZD5153] + Cn1cnc2c(F)c(Nc3ccc(Br)cc3Cl)c(C(=O)NOCCO)cc21 [Selumetinib] (first compound max 1 µM, 7x7, partner max 10 µM)	0.0033	0.0592	-0.053	-0.0724	-0.0246	-0.0627	0.0528	0.025	0.031	-0.0409	0.0165	-0.0071	-0.02	-0.0816	-0.0358	0.0111	-0.0392	0.0204	-0.0356	0.441
CC1(C)CCC(CN2CCN(c3ccc(C(=O)NS(=O)(=O)c4ccc(NCC5CCOCC5)c([N+](=O)[O-])c4)c(Oc4cnc5[nH]ccc5c4)c3)CC2)=C(c2ccc(Cl)cc2)C1 [Venetoclax] + COc1cc(Nc2ncc3c(n2)-c2ccc(Cl)cc2C(c2c(F)cccc2OC)=NC3)ccc1C(=O)O [Alisertib] (first compound max 1 µM, 7x7, partner max 10 µM)	0.0062	-0.0147	0.0149	-0.0381	-0.0528	-0.0765	0.134	0.007	-0.0164	0.0186	-0.0037	0.0325	-0.059	-0.051	-0.0843	0.0279	0.0858	-0.0694	0.111	0.518
NC1(C(=O)N[C@@H](CCO)c2ccc(Cl)cc2)CCN(c2ncnc3[nH]ccc23)CC1 [Capivasertib] + C[C@@H]1COCCN1C2=NC(=NC(=C2)C3(CC3)[S@](=N)(=O)C)C4=C5C=CNC5=NC=C4 [AZD6738] (first compound max 10 µM, 7x7, partner max 10 µM)	-0.0303	-0.0386	-0.0249	-0.0695	-0.0422	-0.02	-0.0163	-0.0423	-0.137	-0.0896	0.0288	-0.0639	-0.0619	-0.0194	-0.0322	-0.0831	-0.112	-0.0604	-0.0771	0.442
COc1nnc2ccc(N3CCC(c4ccc(OCCN5CCN(C)C(=O)[C@H]5C)cc4)CC3)nn12 [AZD5153] + C=CCn1c(=O)c2cnc(Nc3ccc(N4CCN(C)CC4)cc3)nc2n1-c1cccc(C(C)(C)O)n1 [AZD1775] (first compound max 1 µM, partner max 1 µM)	-0.0396	-0.0453	-0.0316	-0.0674	-0.0852	-0.0369	-0.0336	-0.0699	-0.0806	-0.113	-0.0352	-0.0249	-0.0441	0.0068	-0.106	-0.0357	-0.0689	-0.0831	-0.0451	0.34
COc1cccc(OCCCN)c1-c1cc(Nc2cnc(C#N)cn2)n[nH]1 [Prexasertib] + C[C@@H]1COCCN1C2=NC(=NC(=C2)C3(CC3)[S@](=N)(=O)C)C4=C5C=CNC5=NC=C4 [AZD6738] (first compound max 1 µM, 7x7, partner max 10 µM)	-0.0503	-0.0024	-0.0123	0.0375	0.0305	0.0101	-0.0184	0.0135	-0.0173	-0.021	-0.009	-0.019	-0.0277	-0.0583	0.0017	-0.0617	-0.019	0.0238	-0.018	0.797
CCN(CCO)CCCOc1ccc2c(Nc3cc(CC(=O)Nc4cccc(F)c4)[nH]n3)ncnc2c1 [AZD2811] + C[C@@H]1COCCN1C2=NC(=NC(=C2)C3(CC3)[S@](=N)(=O)C)C4=C5C=CNC5=NC=C4 [AZD6738] (first compound max 1 µM, 7x7, partner max 10 µM)	-0.0369	0.0323	-0.0065	-0.0313	-0.0687	-0.0734	-0.0024	-0.0621	-0.0777	0.0096	0.0487	0.004	-0.0264	0.0279	-0.0563	-0.0042	-0.0211	-0.0811	-0.0931	0.619
CN(C)CCCOc1ccc(-c2ccc3ncc4c(c3c2)n(C2CCOCC2)c(=O)n4C)cn1 [AZD0156] + CCN(CCO)CCCOc1ccc2c(Nc3cc(CC(=O)Nc4cccc(F)c4)[nH]n3)ncnc2c1 [AZD2811] (first compound max 1 µM, 7x7, partner max 1 µM)	-0.0232	-0.0056	0.005	-0.046	-0.0348	-0.0411	0.0031	-0.0353	0.0441	-0.0214	0.0233	0.0312	0.0224	0.0224	-0.0644	-0.0016	-0.0141	-0.0342	-0.0119	0.329
CN(C)CCCOc1ccc(-c2ccc3ncc4c(c3c2)n(C2CCOCC2)c(=O)n4C)cn1 [AZD0156] + C=CCn1c(=O)c2cnc(Nc3ccc(N4CCN(C)CC4)cc3)nc2n1-c1cccc(C(C)(C)O)n1 [AZD1775] (first compound max 1 µM, partner max 1 µM)	0.022	-0.0042	0.0155	-0.0403	-0.0418	-0.0232	0.0063	-0.0487	-0.0032	0.0011	0.0183	-0.0369	0.0012	-0.0443	-0.0836	-0.0167	-0.0051	-0.0318	-0.0238	0.38
COc1cccc(OCCCN)c1-c1cc(Nc2cnc(C#N)cn2)n[nH]1 [Prexasertib] + C=CCn1c(=O)c2cnc(Nc3ccc(N4CCN(C)CC4)cc3)nc2n1-c1cccc(C(C)(C)O)n1 [AZD1775] (first compound max 1 µM, partner max 1 µM)	-0.0133	0.0833	0.007	0.0474	-0.0123	-0.0579	-0.0076	0.219	0.0474	-0.0027	0.122	0.0979	0.114	-0.0076	0.0208	0.0112	0.0499	0.0018	0.0439	0.888

Reference: the supplement of paper PMC11061612
